The values that follow come from BindingDB's records for doi:10.7270/Q28G8J4C (Broad Institute, 2009).

The experiment concerns the target T1, POsterior Segregation (Caenorhabditis elegans, UniProt G5EF15).
T1 sequence (G5EF15 whole entry): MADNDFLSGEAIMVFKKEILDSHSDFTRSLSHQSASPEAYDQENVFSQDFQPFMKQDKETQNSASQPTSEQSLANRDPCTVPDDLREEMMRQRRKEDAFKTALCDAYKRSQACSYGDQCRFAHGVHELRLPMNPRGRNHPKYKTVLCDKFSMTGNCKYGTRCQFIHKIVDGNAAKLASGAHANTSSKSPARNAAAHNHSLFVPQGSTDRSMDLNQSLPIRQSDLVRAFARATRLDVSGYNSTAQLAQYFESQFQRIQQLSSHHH
The experiment in a line: disruptors of C. elegans POS-1 RNA interaction – biochemical, fluorescence polarization, dose response (AID 1964). For orientation: In fluorescence polarisation assays a small probe gives low polarisation when free and higher when bound to something large.

The EC50 is the midpoint of the concentration-response curve. Turning to `COc1ccc(C2C(C(=O)c3cccs3)C(=O)C(=O)N2c2nnc(C)s2)cc1OC` (stereo not given) [2-(3,4-dimethoxyphenyl)-1-(5-methyl-1,3,4-thiadiazol-2-yl)-4-oxidanyl-3-thiophen-2-ylcarbonyl-2H-pyrrol-5-one], the EC50 turned out to be 7.2 µM. In other words, the single-digit micromolar range.
For `COc1ccc(C2C(C(=O)c3ccco3)C(=O)C(=O)N2c2nnc(C)s2)cc1OC` (stereo not given) [2-(3,4-dimethoxyphenyl)-3-(furan-2-carbonyl)-4-hydroxy-1-(5-methyl-1,3,4-thiadiazol-2-yl)-2H-pyrrol-5-one] the value was over 300 µM; for `Cc1ccc(C(=O)C2C(=O)C(=O)N(Cc3ccco3)C2c2cccc(Br)c2)o1` (stereo not given) [2-(3-bromophenyl)-1-(2-furanylmethyl)-4-hydroxy-3-[(5-methyl-2-furanyl)-oxomethyl]-2H-pyrrol-5-one], over 300 µM; for `CCCCOc1cccc(C2C(C(=O)c3ccc(C)o3)C(=O)C(=O)N2c2nnc(C)s2)c1` (stereo not given) [2-(3-butoxyphenyl)-3-(5-methylfuran-2-yl)carbonyl-1-(5-methyl-1,3,4-thiadiazol-2-yl)-4-oxidanyl-2H-pyrrol-5-one], 102 µM.
`CSc1nnc(N2C(=O)C(=O)C(C(=O)c3ccco3)C2c2cccc(Cl)c2)s1` (stereo not given) [2-(3-chlorophenyl)-3-(furan-2-carbonyl)-4-hydroxy-1-(5-methylsulfanyl-1,3,4-thiadiazol-2-yl)-2H-pyrrol-5-one] yielded a concentration for a half-maximal effect (EC50) of 31.3 µM.
`CCOc1cccc(C2C(C(=O)c3ccc(C)o3)C(=O)C(=O)N2c2nccs2)c1` (stereo not given) [2-(3-ethoxyphenyl)-3-(5-methylfuran-2-yl)carbonyl-4-oxidanyl-1-(1,3-thiazol-2-yl)-2H-pyrrol-5-one]: the EC50 came to 1.41 µM.
`Cc1cccc(Nc2nc(O)cs2)c1` [2-(3-methylanilino)-1,3-thiazol-4-one] returned an EC50 of over 300 µM.
Take `Cc1nnc(N2C(=O)C(=O)C(C(=O)c3ccco3)C2c2ccc(F)cc2)s1` (stereo not given) [2-(4-fluorophenyl)-3-(furan-2-carbonyl)-4-hydroxy-1-(5-methyl-1,3,4-thiadiazol-2-yl)-2H-pyrrol-5-one]: the EC50 was 34.2 µM.
The compound `CSc1nnc(N2C(=O)C(=O)C(C(=O)c3ccco3)C2c2ccc(F)cc2)s1` (stereo not given) [2-(4-fluorophenyl)-3-(furan-2-carbonyl)-4-hydroxy-1-(5-methylsulfanyl-1,3,4-thiadiazol-2-yl)-2H-pyrrol-5-one] showed an EC50 of 150 µM.
In the case of `Cc1[nH]c2ccccc2c1/C=C1\N=C(c2ccc(F)cc2)OC1=O` [2-(4-fluorophenyl)-4-[(2-methyl-1H-indol-3-yl)methylene]-1,3-oxazol-5(4H)-one], the EC50 was over 300 µM.
`O=C1c2cccc([N+](=O)[O-])c2C(=O)N1n1c(O)csc1=S` [2-(4-keto-2-thioxo-thiazolidin-3-yl)-4-nitro-isoindoline-1,3-quinone] registered an EC50 of 24.9 µM. This counts as double-digit micromolar.
For `Cc1nnc(N2C(=O)C(=O)C(C(=O)c3ccco3)C2c2ccc(C(C)(C)C)cc2)s1` (stereo not given) [2-(4-tert-butylphenyl)-3-(furan-2-carbonyl)-4-hydroxy-1-(5-methyl-1,3,4-thiadiazol-2-yl)-2H-pyrrol-5-one] the value was 24.9 µM.
Consider `COc1ccc(C2C3=C(CCCC3=O)OC(=N)C2C#N)c(OC)c1OC` (stereo not given) [2-Amino-5-oxo-4-(2,3,4-trimethoxy-phenyl)-5,6,7,8-tetrahydro-4H-chromene-3-carbonitrile], for which the EC50 is over 300 µM.
For `N#CC1C(=N)Oc2cc(O)c(Cl)cc2C1c1ccccc1F` (stereo not given) [2-Amino-6-chloro-4-(2-fluoro-phenyl)-7-hydroxy-4H-chromene-3-carbonitrile] the value was over 300 µM; for `O=CC(C=Nc1ccccn1)c1nc2ccccc2o1` (stereo not given) [2-Benzooxazol-2-yl-3-(pyridin-2-ylamino)-propenal], over 300 µM.
`CN1C(=O)/C(=C/c2ccc(-c3ccccc3[N+](=O)[O-])o2)S/C1=N/c1ccc(Cl)c(C(=O)O)c1` [2-Chloro-5-[3-methyl-5-[1-[5-(2-nitro-phenyl)-furan-2-yl]-meth-(Z)-ylidene]-4-oxo-thiazolidin-(2Z)-ylideneamino]-benzoic acid] registered an EC50 of 36.3 µM.
As for `O=C(CC(=O)c1ccccc1)C(=O)NNC(=O)c1ccccc1[N+](=O)[O-]` [2-Nitro-benzoic acid N'-(2-hydroxy-4-oxo-4-phenyl-but-2-enoyl)-hydrazide], the EC50 was 70 µM.
Consider `CC(N=Nc1ccc([N+](=O)[O-])cc1[N+](=O)[O-])c1cc2c(ccc3ccccc32)oc1=O` (stereo not given) [2-[1-[(2,4-dinitrophenyl)hydrazinylidene]ethyl]-3-benzo[f][1]benzopyranone], for which the EC50 was over 300 µM.
For `Oc1csc(N=NCc2cccs2)n1` [2-[2-(thiophen-2-ylmethylidene)hydrazinyl]-1,3-thiazol-4-one] the value was over 300 µM.
Compound `CCOc1cc(C=C2SC(Nc3ccc(CC)cc3)=NC2=O)ccc1OCC(=O)O` [2-[2-ethoxy-4-[(Z)-[2-(4-ethylanilino)-4-oxo-1,3-thiazol-5-ylidene]methyl]phenoxy]acetic acid] came in with an EC50 of 25.6 µM.
`C=CCn1c(=O)c(=Cc2ccsc2)s/c1=C(\C#N)C(=O)NCCN1CCOCC1` [2-[3-allyl-4-keto-5-(3-thenylidene)thiazolidin-2-ylidene]-2-cyano-N-(2-morpholinoethyl)acetamide] returned an EC50 of 6.5 µM.
Compound `C=CCn1c(=O)c(=Cc2ccc(C)o2)s/c1=C(\C#N)C(=O)c1ccccc1` [2-[3-allyl-4-keto-5-[(5-methyl-2-furyl)methylene]thiazolidin-2-ylidene]-3-keto-3-phenyl-propionitrile] showed an EC50 of 30.7 µM.
For `Cc1ccc(C(=O)C2C(=O)C(=O)N(Cc3ccco3)C2c2ccc(N(C)C)cc2)o1` (stereo not given) [2-[4-(dimethylamino)phenyl]-1-(2-furanylmethyl)-4-hydroxy-3-[(5-methyl-2-furanyl)-oxomethyl]-2H-pyrrol-5-one] the value was over 300 µM; for `COc1ccc(C2CC(=O)C(=CNCCCO)C(=O)C2)cc1` (stereo not given) [2-[(3-hydroxypropylamino)methylidene]-5-(4-methoxyphenyl)cyclohexane-1,3-dione], 34.8 µM.
For `Cc1ccc(NNC2=Nc3ccccc3C2=O)cc1` [2-[(4-methylphenyl)hydrazo]-3-indolone] the value was 16 µM; for `CC1(C)CC(=O)C2=C(C1)OC(=N)C(C#N)[C@@]21C(=O)N(CC(N)=O)c2ccccc21` (stereo partly drawn) [2-[(4R)-2-amino-3-cyano-2',5-diketo-7,7-dimethyl-spiro[6,8-dihydrochromene-4,3'-indoline]-1'-yl]acetamide], over 300 µM; for `N#CC1C(=N)OC2=C(C(=O)CCC2)[C@]12C(=O)N(CC(N)=O)c1ccccc12` (stereo partly drawn) [2-[(4R)-2-amino-3-cyano-2',5-diketo-spiro[7,8-dihydro-6H-chromene-4,3'-indoline]-1'-yl]acetamide], over 300 µM.
For `NC(=O)c1ccccc1N=CCC(=O)c1ccc(F)cc1` [2-[[(E)-3-(4-fluorophenyl)-3-keto-prop-1-enyl]amino]benzamide] the value was over 300 µM; for `COc1cccc(CN2C(=O)C3(C4=C(CCCC4=O)OC(=N)C3C#N)c3ccccc32)c1` (stereo not given) [2-amino-1'-(3-methoxybenzyl)-2',5-dioxo-1',2',5,6,7,8-hexahydrospiro[chromene-4,3'-indole]-3-carbonitrile], over 300 µM; for `CC1(C)CC(=O)C2=C(C1)OC(=N)C(C#N)C21C(=O)N(CN2CCOCC2)c2ccccc21` (stereo not given) [2-amino-2',5-diketo-7,7-dimethyl-1'-(morpholinomethyl)spiro[6,8-dihydrochromene-4,3'-indoline]-3-carbonitrile], over 300 µM.
For the compound `COc1ccc(C2C3=C(CCCC3=O)OC(=N)C2C#N)cc1OC` (stereo not given) [2-amino-4-(3,4-dimethoxyphenyl)-5-keto-4,6,7,8-tetrahydrochromene-3-carbonitrile], the EC50 was over 300 µM.
In the case of `COc1ccc(C2C3=C(CC(C)(C)CC3=O)OC(=N)C2C#N)cc1OC` (stereo not given) [2-amino-4-(3,4-dimethoxyphenyl)-5-keto-7,7-dimethyl-6,8-dihydro-4H-chromene-3-carbonitrile], the EC50 was over 300 µM.
On to `N#CC1=C2CCCCC2C(c2cccnc2)C(C#N)(C#N)C1=N` (stereo not given) [2-amino-4-(3-pyridinyl)-4a,5,6,7-tetrahydro-4H-naphthalene-1,3,3-tricarbonitrile], for which the EC50 amounted to 22.2 µM.
For `COc1ccc(C2C3=C(CC(C)(C)CC3=O)OC(=N)C2C#N)cc1` (stereo not given) [2-amino-4-(4-methoxyphenyl)-7,7-dimethyl-5-oxo-6,8-dihydro-4H-1-benzopyran-3-carbonitrile] the value was 69.7 µM; for `COc1cc(OC)c(C2C3=C(CC(C)CC3=O)OC(=N)C2C#N)cc1OC` (stereo not given) [2-amino-4-asaryl-5-keto-7-methyl-4,6,7,8-tetrahydrochromene-3-carbonitrile], over 300 µM.
As to `N#CC1C(=N)OC2=C(C(=O)CCC2)C1c1ccccc1` (stereo not given) [2-amino-5-keto-4-phenyl-4,6,7,8-tetrahydrochromene-3-carbonitrile], the EC50 was over 300 µM.
Compound `COc1ccc(C2C3=C(CC(C)(C)CC3=O)OC(=N)C2C#N)c(OC)c1OC` (stereo not given) [2-amino-5-keto-7,7-dimethyl-4-(2,3,4-trimethoxyphenyl)-6,8-dihydro-4H-chromene-3-carbonitrile] had an EC50 of over 300 µM.
As for `CC1(C)CC(=O)C2=C(C1)OC(=N)C(C#N)C2c1ccccc1` (stereo not given) [2-amino-5-keto-7,7-dimethyl-4-phenyl-6,8-dihydro-4H-chromene-3-carbonitrile], the EC50 is over 300 µM.
For `COc1ccc(C2C3=C(CC(C)CC3=O)OC(=N)C2C#N)c(OC)c1OC` (stereo not given) [2-amino-5-keto-7-methyl-4-(2,3,4-trimethoxyphenyl)-4,6,7,8-tetrahydrochromene-3-carbonitrile] the value was over 300 µM; for `CC1CCC2=C(C#N)C(=N)C(C#N)(C#N)C(c3cccs3)C2C1` (stereo not given) [2-amino-6-methyl-4-(2-thienyl)-4a,5,6,7-tetrahydro-4H-naphthalene-1,3,3-tricarbonitrile], 21.7 µM.
